Several values for one entry are separate records, joined by “and”; a condition that tells them apart may be missing. Identical values can stand only once. Like-named read-outs stand apart in the source and are kept apart here.
Legend:
Assay type in all cases: biochemical
DAOC synthase [1] = biological target: T1, DAOC synthase (Streptomyces clavuligerus, UniProt P18548); assay: DAOC synthase activity assay: effect of metal chelators, sulfhydryl reagents and other inhibitors
Protocol: ^1 Enzymatic reactions were conducted in the presence of […]
FeSO4 and 0.1 mM DTT. The enzyme was incubated with the indicated
inhibitor for 1 min prior to the initiation of the reaction with
(§1) The enzymatic reaction was initiated by addition of penicillin N and was conducted for 15 min at 36° C. The synthase activity was determined by monitoring DAOC formation at 260 nm with HPLC as described by Dotzlaf, J. E., and Yeh, W. K (1987), J. Bacteriol 169, 1611-1618.

DAOC synthase [2] = biological target: T1, DAOC synthase; assay: Cofactor and metal ion requirement and stimulation of DAOC synthase activity
Protocol: as §1

purified synthase [3] = biological target: T2, purified synthase (Streptomyces clavuligerus, UniProt P18548); assay: Hydroxylase activity (conversion to DAC)
T2 sequence (P18548 whole entry): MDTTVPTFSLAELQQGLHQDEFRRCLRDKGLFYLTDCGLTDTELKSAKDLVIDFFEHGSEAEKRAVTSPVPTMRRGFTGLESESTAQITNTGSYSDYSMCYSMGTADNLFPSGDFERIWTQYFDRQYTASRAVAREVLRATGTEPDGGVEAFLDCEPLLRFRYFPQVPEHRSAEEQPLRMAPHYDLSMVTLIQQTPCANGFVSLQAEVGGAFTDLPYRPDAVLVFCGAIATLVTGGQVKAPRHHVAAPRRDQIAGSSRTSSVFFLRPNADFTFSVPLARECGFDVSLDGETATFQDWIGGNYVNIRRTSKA

DAOC synthase [4] = biological target: T1, DAOC synthase; assay: Substrate specificity of DAOC synthase (HPLC detection); conditions: optimum conditions for converting penicillin N to DAOC; HPLC detectable
native synthase = biological target: T3, native synthase (Streptomyces clavuligerus, UniProt P18548); assay: Kinetics of native synthase, partially purified (Mono Q eluate); conditions: native partially purified enzyme; Tris-HCl buffer, 36° C.
T3 construct: native synthase, evaluated with the partially purified enzyme; endogenous in cells; host or cells: Streptomyces clavuligerus cells, crude extract, three-step purification (Mono Q eluate)
T3 sequence (P18548 whole entry): as above

[5] = biological target: T4, recombinantly produced DAOC synthase (Streptomyces clavuligerus, UniProt P18548); assay: Kinetics of recombinant enzyme (Lineweaver-Burk); conditions: pH 7.0, 50 mM HEPES buffer, 36° C.
T4 construct: made in house; host or cells: Escherichia coli K12 JM109 (plasmid pOW382)
T4 sequence (P18548 whole entry): as above
Protocol: The kinetics of the native enzyme and recombinant enzyme were determined under the optimal reaction conditions for the enzyme, i.e., at pH 7.0 in 50 mM HEPES buffer at 36° C.

purified synthase [6] = biological target: T2, purified synthase; assay: Stoichiometric analysis of conversion of penicillin N to DAOC; conditions: over 60 min of the reaction
Protocol: In the conversion of penicillin N to DAOC by the purified synthase provided herein, the molar ratio for DAOC formation/penicillin N disappearance over 60 min of the reaction remained in the range of 0.90-0.98 as shown in FIG. 5. The conversion of penicillin N to DAOC was 94% complete under the reaction conditions.

[7] = metal ions: order Zn2+ > Co2+ > Ni2+
[8] = additive 0.1 mM, 0.06 mN FeSO4, 0.1 mM DTT, 1 min incubation with inhibitor before penicillin N
[9] = additive 1.0 mM, 0.06 mN FeSO4, 0.1 mM DTT, 1 min incubation with inhibitor before penicillin N

T1 sequence (P18548 whole entry): as above

Q: With O[C@H](CS)[C@H](O)CS (racemic) [DTT, dithiothreitol] as the compound, how does the “restoration of synthase activity after DTNB inactivation” value (DAOC synthase [1]; 2 mM DTT added, 30 min) read?
A: fully restored

Q: What about the “stimulation of DAOC synthase activity” value (DAOC synthase [2]) of the same compound?
A: stimulated

Q: For C=C1CS[C@@H]2[C@H](NC(=O)CCCC(N)C(=O)O)C(=O)N2C1C(=O)O (stereo partly drawn) [3-exomethylenecephalosporin C, 7β-(α-aminoadipamido)-3-exomethylenecepham-4-carboxylic acid], which “inhibition of DAOC synthase activity (in words)” value (shortened to “inhibition”) (DAOC synthase [1]; [7]) is on record?
A: strong inhibitor

Q: What about the “conversion to DAC by the purified synthase” value (purified synthase [3]) of the same compound?
A: possesses the ability to convert 3-exomethylenecephalosporin C to DAC

Q: How did the “synthase activity with the compound as substrate” value (from here on “synthase activity … as substrate”) (DAOC synthase [4]) turn out when CC1(C)S[C@@H]2[C@H](N)C(=O)N2[C@H]1C(=O)O [6-aminopenicillanic acid] was run?
A: No synthase activity was observed

Q: Nc1ncnc2c1ncn2[C@@H]1O[C@H](COP(=O)(O)OP(=O)(O)OP(=O)(O)O)[C@@H](O)[C@H]1O [ATP, adenosine triphosphate] was tested. Which “stimulation of DAOC synthase activity” value (DAOC synthase [2]) did it give?
A: No detectable stimulation

Q: CC1=C(C(=O)O)N2C(=O)[C@@H](NC(=O)CCC[C@@H](N)C(=O)O)[C@H]2SC1 [DAOC, deacetoxycephalosporin C] was tested. Which “conversion to DAC by the purified synthase” value (purified synthase [3]) did it give?
A: lacks the hydroxylase activity for converting DAOC to DAC

Q: With O=C(O)c1cc(SSc2ccc([N+](=O)[O-])c(C(=O)O)c2)ccc1[N+](=O)[O-] [DTNB, 5,5'-dithiobis-2-nitrobenzoic acid] as the compound, how does the “inactivation of the enzyme” value (DAOC synthase [1]; 0.2 mM DTNB, 0.5 min, 4° C.) read?
A: complete inactivation

Q: And the “Relative Activity (%)” value (DAOC synthase [1]; [8])?
A: 70%

Q: What about the “Relative Activity (%)” value (DAOC synthase [1]; [9]) of the same compound?
A: 0%

Q: And the “inhibition” value (DAOC synthase [1]; [7])?
A: highly susceptible to inhibition

Q: Which “inhibition” value (DAOC synthase [1]) does the source give for O=C(O)CN(CCN(CC(=O)O)CC(=O)O)CC(=O)O [EDTA, ethylenediamine tetraacetic acid] here?
A: highly sensitive to inhibition

Q: Which “replacement of ferrous ion for expression of enzyme activity” value (shortened to “replacement of ferrous ion”) (DAOC synthase [2]; in the presence of DTT and ascorbate, enzyme slightly less active) does the source give for [Fe+3] [Ferric ion] here?
A: can substitute for ferrous ion

Q: How did the “Relative Activity (%)” value (DAOC synthase [1]) turn out when O=C(O)CI [Iodoacetic acid, iodoacetic acid] was run?
A: 100% and 65%

Q: What about the “inhibition” value (DAOC synthase [1]) of the same compound?
A: slightly inhibited

Q: With CCN1C(=O)C=CC1=O [NEM, N-ethylmaleimide] as the compound, how does the “Relative Activity (%)” value (DAOC synthase [1]; [8]) read?
A: 55%

Q: And the “Relative Activity (%)” value (DAOC synthase [1]; [9])?
A: 0%

Q: What about the “inhibition” value (DAOC synthase [1]; [7]) of the same compound?
A: highly susceptible to inhibition

Q: With CC1(C)S[C@@H]2[C@H](NC(=O)[C@H](N)c3ccccc3)C(=O)N2[C@H]1C(=O)O [ampicillin] as the compound, how does the “synthase activity … as substrate” value (DAOC synthase [4]) read?
A: No synthase activity was observed

Q: With [Ca] [calcium] as the compound, how does the “replacement of ferrous ion” value (DAOC synthase [2]) read?
A: could not be replaced

Q: [Co+2] [cobaltous] was tested. Which “inhibition” value (DAOC synthase [1]; [7]) did it give?
A: inhibited

Q: And the “replacement of ferrous ion” value (DAOC synthase [2])?
A: could not be replaced

Q: How did the “replacement of ferrous ion” value (DAOC synthase [2]) turn out when [Cu+] [cuprous] was run?
A: could not be replaced

Q: Which Ka (native synthase) does the source give for [Fe+2] [ferrous ion] here?
A: 4 µM

Q: And the “requirement for expression of catalytic activity” value (DAOC synthase [2])?
A: requires

Q: And the Ka [5]?
A: 8 µM

Q: For CC1(C)S[C@@H]2[C@H](NC(=O)CCC[C@H](N)C(=O)O)C(=O)N2[C@H]1C(=O)O [isopenicillin N], which “synthase activity … as substrate” value (DAOC synthase [4]) is on record?
A: No synthase activity was observed

Q: For [Mg] [magnesium], which “replacement of ferrous ion” value (DAOC synthase [2]) is on record?
A: could not be replaced

Q: [Mn+2] [manganous] was tested. Which “replacement of ferrous ion” value (DAOC synthase [2]) did it give?
A: could not be replaced

Q: How did the “inhibition” value (DAOC synthase [1]; [7]) turn out when [Ni+2] [nickel] was run?
A: inhibited

Q: And the “replacement of ferrous ion” value (DAOC synthase [2])?
A: could not be replaced

Q: Which results are given for c1cnc2c(c1)ccc1cccnc12 [o-Phenanthroline, 1,10-phenanthroline]?
A: Relative Activity (%) (DAOC synthase [1]; additive 0.02 mM, 0.06 mN FeSO4, 0.1 mM DTT, 1 min incubation with inhibitor before penicillin N): 63%; Relative Activity (%) (DAOC synthase [1]; additive 0.2 mM, 0.06 mN FeSO4, 0.1 mM DTT, 1 min incubation with inhibitor before penicillin N): 0%; inhibition of DAOC synthase activity (in words) (DAOC synthase [1]; [7]): highly sensitive to inhibition

Q: How did the “requirement for expression of catalytic activity” value (DAOC synthase [2]) turn out when O=O [oxygen] was run?
A: requires

Q: Which “Relative Activity (%)” value (DAOC synthase [1]; [8]) does the source give for O=C(O)c1cc[c]([Hg+])cc1.[OH-] [p-HMB, p-hydroxymercuribenzoate] here?
A: 0%

Q: What about the “Relative Activity (%)” value (DAOC synthase [1]; [9]) of the same compound?
A: 0%

Q: And the “inhibition” value (DAOC synthase [1]; [7])?
A: highly susceptible to inhibition

Q: CC1(C)S[C@@H]2[C@H](NC(=O)Cc3ccccc3)C(=O)N2[C@H]1C(=O)O [penicillin G] was tested. Which “synthase activity … as substrate” value (DAOC synthase [4]) did it give?
A: No synthase activity was observed

Q: With CC1(C)S[C@@H]2[C@H](NC(=O)CCC[C@@H](N)C(=O)O)C(=O)N2[C@H]1C(=O)O [penicillin N] as the compound, how does the “molar ratio for DAOC formation/penicillin N disappearance” value (purified synthase [6]) read?
A: 0.90-0.98

Q: With CC1(C)S[C@@H]2[C@H](NC(=O)COc3ccccc3)C(=O)N2[C@H]1C(=O)O [penicillin V] as the compound, how does the “synthase activity … as substrate” value (DAOC synthase [4]) read?
A: No synthase activity was observed

Q: For [K+] [potassium], which “replacement of ferrous ion” value (DAOC synthase [2]) is on record?
A: could not be replaced

Q: [Na+] [sodium] was tested. Which “replacement of ferrous ion” value (DAOC synthase [2]) did it give?
A: could not be replaced

Q: For [Zn+2] [zinc], which “inhibition” value (DAOC synthase [1]; [7]) is on record?
A: inhibited

Q: What about the “replacement of ferrous ion” value (DAOC synthase [2]) of the same compound?
A: could not be replaced

From patent US5082772A, “Process for preparing deacetylcephalosporin C” (priority 1988, dated 1992)
